Patent publication US12565467B2, “Compounds, compositions, and methods for the treatment of inflammatory, degenerative, and neurodegenerative diseases” (Board of Supervisors of Louisiana State University and …, priority 2015, dated 2026)

What was measured:
ARPE-19 cells = test: Oxidative stress induced apoptosis / cell death in ARPE-19 cells; type: cell-based, human; details: for concentration dependent cytoprotection (FIG. 5C): ARPE-19 under OS
Protocol: FIG. 5. (A) Effect of PD146176 on VLC-PUFA-inhibited apoptosis induced by OS in ARPE-19 cells. […] It is evident that 32:6 and 34:6 LCAF were able to induce a substantial amount (55 and 48% respectively) of neuroprotection compared to PD 146176 (22%) when the stressed cells were treated with 5 μm of 15-LOX-D1 inhibitor. It can be concluded that since PD146176 is the inhibitor of 15-lipooxygenase enzyme, it might be protecting the stressed RPE cells by accumulating neuroprotective agents inside the cells. (B) Comparison of cytoprotective capacities of NPD1, C32:6 and C34:6 VLC-PUFA on oxidative stress-induced apoptosis in 15-LOX-1 cells. Shown here is the comparison of neuroprotection in a 15-LOX-1-deficient cell line under oxidative stress with 32:6 and 34:6 VLC-PUFA along with NPD1. 32:6 and 34:6 LCAF were able to induce neuroprotection (45% and 40% respectively), as compared to oxidative stress (90%) under this condition. (C) Concentration dependent cytoprotection by C32:6 and C34:6 VLC-PUFA in oxidative-stress induced ARPE-19 cells. A concentration (50-500 nM) kinetic of cytoprotection induced by LCAF 32:6 and 34:6 in RPE cell culture under OS was shown here. […] We decided to use 250 nM concentrations of 32:6 and 34:6 LCAF in subsequent experiments. (D) Selected images of alive and dead cells from this study (control, OS, treatment with C32:6).
FIG. 5—(A) Effect of PD146176 on VLC-PUFA inhibited apoptosis induced by OS in ARPE-19 cells. […] It is evident that 32:6 and 34:6 LCAF were able to induce a substantial amount (55 and 48% respectively) of neuroprotection compared to PD 146176 (22%) when the stressed cells were treated with 5 μm of 15-LOX-D1 inhibitor. It can be concluded that since PD146176 is the inhibitor of 15-lipooxygenase enzyme, it might be protecting the stressed RPE cells by accumulating neuroprotective agents inside the cells. (B) Comparison of cytoprotective capacities of NPD1, C32:6 and C34:6 VLC-PUFA on oxidative stress-induced apoptosis in 15-LOX-1 cells. Shown here is the comparison of neuroprotection in a 15-LOX-1-deficient cell line under oxidative stress with 32:6 and 34:6 VLC-PUFA along with NPD1. 32:6 and 34:6 VLC-PUFA were able to induce neuroprotection (45% and 40% respectively), as compared to oxidative stress (90%) under this condition. (C) Concentration dependent cytoprotection by C32:6 and C34:6 VLC-PUFA in oxidative-stress induced ARPE-19 cells. A concentration (50-500 nM) kinetic of cytoprotection induced by VLC-PUFA 32:6 and 34:6 in RPE cell culture under OS was shown here. […] We decided to use 250 nM concentrations of 32:6 and 34:6 VLC-PUFA in subsequent experiments. (D) Selected images of alive and dead cells from this study (control, OS, treatment with C32:6).

[1] = test system: neuronal cells in primary cultures; test: NMDA-induced toxicity in neuronal cells in primary culture, MTT assay for cell viability; type: cell-based
Description: FIG. 11. […] In several neurological and neurodegenerative diseases, such as stroke, epilepsy, status epilepticus, traumatic head injury, etc., as well as ophthalmological diseases, such as glaucoma, an excessive presynaptic release of the excitatory neurotransmitter glutamate takes place. As a consequence, glutamate transporters that function to remove extracellular glutamate from astrocytes and neurons are overwhelmed and the NMDA-type glutamate receptor is over-activated. This receptor is a calcium channel that therefore leads to a flooding of calcium into the postsynaptic cell. The overall phenomena is refer to as excitotoxicity that in turn leads to neuronal damage and cell death. MK801 is a known blocker of this receptor used here as a control.
In several neurological and neurodegenerative diseases, such as stroke, epilepsy, status epilepticus, traumatic head injury, etc., as well as ophthalmological diseases, such as glaucoma, an excessive presynaptic release of the excitatory neurotransmitter glutamate takes place. As a consequence, glutamate transporters that function to remove extracellular glutamate from astrocytes and neurons are overwhelmed and the NMDA-type glutamate receptor is over-activated. This receptor is a calcium channel that therefore leads to a flooding of calcium into the postsynaptic cell. The overall phenomena is refer to as excitotoxicity that in turn leads to neuronal damage and cell death. MK801 is a known blocker of this receptor used here as a control.

Bax = Bax expression in LOX-D RPE cells under oxidative stress; type: cell-based, human
Protocol: (§1) FIG. 8. (A) Bcl-xL-upregulation by elovanoids ELV1 and ELV2 in ARPE-19 cells under stress. Bcl-xL is the antiapoptotic Bcl2 family protein. Like proapoptotic proteins Bid and Bim, the effect of elovaniod precursors on the antiapoptotic protein Bcl-xL was tested in this figure in RPE cells under OS. […] (B) Effect of NPD1, ELV1 and ELV2 on Bax expression in LOX-D cells under stress. Proapoptotic Bax was tested in this figure. […] C) VLC-PUFA and elovanoids ELV1 and ELV2 mediated effect on Bax upregulation in ARPE-19 cells under stress. In this experiment, elovanoid precursors along with VLC-PUFA were tested on the downregulation of the Bax protein in RPE cells under stress.
as §1, with “8—(A)” for “8. (A)”

CC/C=C\C/C=C\C/C=C\C/C=C\C/C=C\C/C=C\CCCCCCCCCCCCCCC(=O)O [C34:6]
concentration dependent cytoprotection (FIG. 5C) (ARPE-19 cells; 250 nM): very good intermediate effect | concentration dependent cytoprotection (FIG. 5C) (ARPE-19 cells; 500 nM): maximum effect | protection against OS in RPE cells (summary, FIGS. 4-10) (ARPE-19 cells; RPE cells): protective against OS | concentration dependent cytoprotection (FIG. 5C) (ARPE-19 cells; starting from 50 nM): gradual decrease of cell deaths | neuroprotection (FIG. 5A) (ARPE-19 cells; stressed ARPE-19 cells treated with 5 μm of 15-LOX-D1 inhibitor PD146176): 48%

CC/C=C\C[C@H](O)\C=C/C=C/C=C/[C@H](O)C/C=C\C/C=C\CCCCCCCCCCCCCCC(=O)O [ELV2, (16Z,19Z,22R,23E,25E,27Z,29S,31Z)-22,29-dihydroxytetratriaconta-16,19,23,25,27,31-hexaenoic acid]
protection of neuronal cells from NMDA-induced toxicity (FIG. 11A) ([1]; 200 nM): potently protects neuronal cells | cell death and cell viability with NMDA in increasing concentrations (FIG. 11) ([1]; neuronal cultures, MTT): reduces cell death and increases cell viability | effect on Bax upregulation by OS (FIG. 8B) (Bax): potent downregulation
